Measurements: patent US20100016435A1, “HYBRID MOLECULES HAVING MIXED VITAMIN D RECEPTOR AGONISM AND HISTONE DEACETYLASE INHIBITORY PROPERTIES” (McGill University, priority 2006, published 2010)

Key:
SCC4 cells [1] = test: Acidic β-galactosidase activity (marker of autophagy), X-Gal staining and 620 nm measurement; assay type: cell-based, human; details: qualitative, FIG. 10A
From the text: FIG. 10 is an illustration of the effects of 1, 3, 1+3 and 6 on the induction of acidic β-galactosidase activity, a marker of autophagy (A); FIG. 10 is an illustration of the effects 1, 3, 1+3 and 6 on the levels of β-galactosidase expression as obtained by measuring the indigo cleavage product of X-Gal at 620 nm (B).
Since it was observed that treatment with 1 could enhance cell death by autophagy (ref. 26), the effects of different treatments on the induction of acidic β-galactosidase activity, a marker of autophagy (FIG. 10A) was tested.

SCC4 cells [2] = test: Immunocytochemical and morphological analysis (mitotic catastrophe); assay type: cell-based, human
From the text: FIG. 12 is an illustration of the immunocytochemical analysis of the effects of 1, 3, or 1 and 3 combined on SCC4 cells (A). […] Both phenotypes are characteristics of mitotic catastrophe. The lower panels (B) show cytoplasmic bridges between SCC4 cells treated with 1 and 3, consistent with the formation of the tubulin bridges seen above in A.
Assembly into microtubules is regulated by acetylation. […] Previous studies have shown that microtubule stabilizing agents can induce mitotic catastrophe (ref. 30). […] The formation of intercellular microtubular structures was consistent with observations in the light microscope of numerous intercellular bridges in cells treated with both 1 and 3 (FIG. 12B, arrows), but not in other treatment groups (not shown).

human VDR = biological target: T1, human VDR (Homo sapiens, UniProt P11473); test: Reporter gene assay (VDRE-luciferase) in transiently transfected COS7 cells; assay type: cell-based
T1 construct: expressed in transfected cells; host or cells: COS7
T1 sequence (P11473 1-427): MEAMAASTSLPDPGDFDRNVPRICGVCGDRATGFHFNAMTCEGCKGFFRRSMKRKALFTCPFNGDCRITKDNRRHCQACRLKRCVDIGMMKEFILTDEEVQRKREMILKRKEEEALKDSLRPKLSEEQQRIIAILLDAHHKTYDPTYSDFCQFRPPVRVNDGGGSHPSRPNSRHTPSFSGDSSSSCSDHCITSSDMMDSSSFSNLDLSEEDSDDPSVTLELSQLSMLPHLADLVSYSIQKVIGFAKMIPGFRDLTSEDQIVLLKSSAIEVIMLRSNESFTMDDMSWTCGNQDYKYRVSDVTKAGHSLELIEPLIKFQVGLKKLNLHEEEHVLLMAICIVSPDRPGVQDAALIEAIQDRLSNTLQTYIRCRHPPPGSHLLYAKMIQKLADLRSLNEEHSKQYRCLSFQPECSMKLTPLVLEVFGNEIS
Procedure: FIG. 2 is an illustration of the vitamin D receptor agonist activity of 6 using a reporter gene assay in transiently transfected COS7 cells.
Hybrid molecule 6 was tested for calcitriol agonist activity using a reporter gene assay under standard conditions.^25,26 COS7 cells were transiently co-transfected with a plasmid expression vector for the human VDR, a plasmid vector expressing bacterial β-galactosidase from a constitutively active promoter (as an internal control for transfection efficiency), and a vector containing a luciferase reporter gene, under control of a previously described synthetic promoter composed of three high affinity VDREs (Vitamin D Response Elements) placed immediately upstream of a truncated promoter region from the herpes simplex virus thymidine kinase gene.^25 Cells were left overnight in the presence of DNA and transfection reagent (lipofectamine). The media were changed and cells were incubated in fresh media containing either vehicle (DMSO), 1 (100 nM), 3 (15 nM), 1 and 3 combined (100 nM/15 nM) or 6 (100 nM), and incubated a further 36 h.

SCC4 cells [3] = test: Protein acetylation in nuclear and cytoplasmic extracts, Western blot with anti-acetyllysine antibody; assay type: cell-based, human; details: 6 h
From the text: (§1) FIG. 4 is an illustration of the HDAC inhibitory activity of 3 in the SCC4 cell line. FIG. 4A is an illustration of a western blot of nuclear and cytoplasmic extracts of SCC4 cells treated with vehicle (−), 1, or 3 alone or in combination, as indicated. The 55 kDa band corresponds to the molecular weight of tubulin. FIG. 4B illustrates a western blot probed with an antibody directed against acetylated histone H4 (AcH4) showing the effects of the treatments described in A on acetylation of histone H4. FIG. 4C illustrates western blots of the effects of treatments described in A on levels of total alpha-tubulin (left) and acetylated alpha-tubulin (right).
(§2) In preliminary experiments, TSA-inducible protein acetylation was analyzed in nuclear and cytoplasmic extracts of SCC4 cells treated for 6 h with 1, 3, or 1 and 3 and subsequently probed by Western blotting for protein acetylation using an anti-acetyllysine antibody. […] Effects of 3 on histone acetylation specifically, were confirmed by probing for acetylation of histone H4 (FIG. 4B). […] However, it was not clear whether this corresponded to enhanced expression or acetylation. […] This was confirmed by probing cytoplasmic fractions with an antibody that recognized α-tubulin (FIG. 4C). Calcitriol (1) had no effect on the acetylation of α-tubulin, and none of the treatments had any substantial effect on total α-tubulin expression (FIG. 4C).

SCC4 cells [4] = test: Antiproliferative activity in SCC4 cells; details: 3 alone, data not shown
SCC25 cells = test: Antiproliferative activity in SCC25 cells; assay type: cell-based; details: 1 at 1 nM or 100 nM; 3 15 nM; combination 3 with 100 nM 1; FIG. 7B
From the text: FIG. 7 is an illustration of the antiproliferative activities of 1 and 3, individually or in combination, in SCC4 cells (A) or in SCC25 cells (B) at the concentrations indicated.

α-tubulin = test: α-Tubulin acetylation in SCC4 cells, Western blot; assay type: cell-based, human; details: 3 15 nM; 36 or 39 10^−6 or 10^−7M; 6 h or 24 h, FIG. 6C
From the text: as §1
FIG. 6 is a comparison of the HDAC inhibitory activities of 1, 3, 6, 36 or 39 as assessed by their effects on acetylation of alpha-tubulin. In A, SCC4 cells were incubated with vehicle or compound 1 (10^−6M), 3 (15 nM), 6 (10^−6M) and 36 (10^−6M), as indicated for 6 h and protein extracts were probed for total α-tubulin (Tub.) or acetylated α-tubulin (AcTub.) by Western blotting. Blots for acetylated alpha-tubulin and total alpha-tubulin are shown. In B, SCC4 cells were incubated with vehicle or compound 3 (15 nM), 6 (10^−6M) or 36 (10^−6M) as indicated for 6 h or 24 h and protein extracts were probed for acetylated α-tubulin (AcTub.) by Western blotting. In C, SCC4 cells were incubated with vehicle or compounds 3 (15 nM), 36 (10^−6 or 10^−7M) or 39 (10^−6 or 10^−7M) as indicated for 6 h or 24 h and protein extracts were probed for total α-tubulin (tub.) or acetylated α-tubulin (AcTub.) by Western blotting.
as §2
SCC4 cells were incubated with vehicle or compound as indicated for 6 h and cytoplasmic protein extracts were probed by Western blotting using a specific antibody for acetylated α-tubulin.

histone H4 = test: Histone H4 acetylation, Western blot; assay type: cell-based, human; details: SCC4 cells, 6 h
From the text: as §1, §2

HDAC6 = HDAC6 (Homo sapiens, UniProt Q9UBN7); details: cited from earlier work
Chain of HDAC6 (Q9UBN7 whole entry, species assumed): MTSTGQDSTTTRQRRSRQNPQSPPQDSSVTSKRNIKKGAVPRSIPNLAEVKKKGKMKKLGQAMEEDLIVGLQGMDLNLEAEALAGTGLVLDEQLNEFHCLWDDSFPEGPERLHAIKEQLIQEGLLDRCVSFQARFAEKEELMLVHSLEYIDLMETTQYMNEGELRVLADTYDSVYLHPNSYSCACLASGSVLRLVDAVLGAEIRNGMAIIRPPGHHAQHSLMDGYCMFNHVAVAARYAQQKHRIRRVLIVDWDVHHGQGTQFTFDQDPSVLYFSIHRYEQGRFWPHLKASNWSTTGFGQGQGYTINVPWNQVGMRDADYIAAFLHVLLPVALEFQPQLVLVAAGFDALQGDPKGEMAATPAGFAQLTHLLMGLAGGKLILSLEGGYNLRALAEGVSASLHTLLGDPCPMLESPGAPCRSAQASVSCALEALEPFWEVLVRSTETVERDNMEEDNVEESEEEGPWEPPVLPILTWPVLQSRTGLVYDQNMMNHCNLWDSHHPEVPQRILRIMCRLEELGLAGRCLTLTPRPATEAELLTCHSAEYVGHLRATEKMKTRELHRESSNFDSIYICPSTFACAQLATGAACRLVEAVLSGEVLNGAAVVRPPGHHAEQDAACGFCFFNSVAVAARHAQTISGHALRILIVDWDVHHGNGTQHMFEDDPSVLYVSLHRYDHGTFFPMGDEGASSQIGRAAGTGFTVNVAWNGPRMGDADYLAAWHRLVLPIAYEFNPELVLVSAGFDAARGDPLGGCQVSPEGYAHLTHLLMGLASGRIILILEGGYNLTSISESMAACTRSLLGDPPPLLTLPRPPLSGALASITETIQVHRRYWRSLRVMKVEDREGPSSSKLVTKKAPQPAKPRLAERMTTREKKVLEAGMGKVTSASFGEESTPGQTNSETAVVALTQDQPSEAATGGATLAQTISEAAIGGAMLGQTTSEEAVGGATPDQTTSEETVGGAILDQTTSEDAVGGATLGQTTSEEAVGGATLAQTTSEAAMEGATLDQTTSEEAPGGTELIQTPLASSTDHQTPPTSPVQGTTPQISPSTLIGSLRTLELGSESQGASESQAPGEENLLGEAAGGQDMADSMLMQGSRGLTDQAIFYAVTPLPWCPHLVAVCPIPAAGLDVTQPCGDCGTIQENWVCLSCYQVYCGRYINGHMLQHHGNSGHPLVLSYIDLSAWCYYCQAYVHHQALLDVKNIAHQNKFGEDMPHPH

In the case of CC(/C=C/C(=O)NO)=C\[C@@H](C)C(=O)c1ccc(N(C)C)cc1 [compound 3, trichostatin A], the “acidic β-galactosidase staining (X-Gal, pH 4.0), cytochemical” value (SCC4 cells [1]) is reported as “weak or relatively modest effects”, the cell morphology (SCC4 cells [2]; FIG. 12) is reported as “did not differ from control cells” and the “induction of mitotic catastrophe” value (SCC4 cells [2]; SCC4 cells) is reported as “not 1 or 3 alone”. For the same molecule, the “reporter gene activity (calcitriol agonist activity)” value (human VDR; COS7, 36 h, 1 100 nM, 3 15 nM, 6 100 nM, not normalized) was “no substantial effect”, the “expression from the internal control plasmid (β-galactosidase)” value (human VDR; COS7 cells) was “modestly affects expression” and the “acetylation of a 55 kDa protein, likely tubulin” value (SCC4 cells [3]; cytoplasmic extracts) was “markedly enhanced”. The “acetylation of low molecular weight nuclear proteins” value (SCC4 cells [3]; nuclear extracts) was “markedly enhanced”, the SCC4 proliferation (SCC4 cells [4]; 50 nM) was “completely inhibited” and the cell death (SCC4 cells [4]; concentrations higher than 50 nM) was “substantial cell death”. For the same molecule, the “SCC25 proliferation / sensitivity” value (SCC25 cells) was “substantially less sensitive”, the “levels of acetylated alpha-tubulin normalized for total alpha-tubulin” value (α-tubulin) was “Elevated levels” and the “histone H4 acetylation” value (histone H4) was “markedly enhanced”. The HDAC6 activity (HDAC6) was “can be blocked”.
